This is an account of results in PMC9864251 (Viruses, 2022).

For data set [1], the target named is T1, HuNoV (GII.4) RdRp (Norovirus GII.4 (Human norovirus, Norovirus norwalkense), UniProt P54634). Briefly: Gel-based (gel-shift) RdRp primed elongation assay with PE44-NoV template. The class given is biochemical. The note with it: compounds at fixed concentration of 100 μM.
In data set [2] the target is T1, HuNoV (GII.4) RdRp. Kind of data set: Quantitative fluorescent RdRp activity assay (PicoGreen, poly(C) template). The class given is biochemical. Conditions: compounds at 20 μM in triplicate, normalized to DMSO control.
Data set [3] has as its system RAW 264.7 cells. Kind of data set: Cytotoxicity by the MTS method in uninfected RAW 264.7 cells. The class given is cell-based, mouse. Conditions: 3 days, 0.6–100 μM range, mean ± SD, at least three independent experiments.
The test system of data set [4] is NoV. Further details: method as in earlier work. Conditions: cited from earlier work.
On the set-up of data set [5]: method as in earlier work. The note with it: cited from earlier work.
Data set [6] addresses T1, HuNoV (GII.4) RdRp. Conditions: activity data as previously reported ref 18,19, read-out: In Vitro RdRp Activity Assay IC50; cited from earlier work.
Data set [7] relates to MNV (virus strain MNV-1.CW1). Kind of data set: MNV antiviral MTS-based cytopathic effect. The class given is cell-based, murine norovirus. Conditions: Norwalk virus, RAW264.7, 72 h, read-out: MNV EC50.
The test system of data set [8] is HuNoVpol. Further details: method as in earlier work. Conditions: cited from earlier work.
Data set [9] deals with MNV. Further details: method as in earlier work. Conditions: cited from earlier work.
Data set [10] concerns MNVpol. On the set-up: method as in earlier work. Conditions: cited from earlier work.

Where only a bound is given, the exact number is not on record here.

The EC50 is the concentration that produces a half-maximal response. In general, IC50 refers to the concentration at which inhibition is half-maximal.

T1 sequence (P54634 1190-1699): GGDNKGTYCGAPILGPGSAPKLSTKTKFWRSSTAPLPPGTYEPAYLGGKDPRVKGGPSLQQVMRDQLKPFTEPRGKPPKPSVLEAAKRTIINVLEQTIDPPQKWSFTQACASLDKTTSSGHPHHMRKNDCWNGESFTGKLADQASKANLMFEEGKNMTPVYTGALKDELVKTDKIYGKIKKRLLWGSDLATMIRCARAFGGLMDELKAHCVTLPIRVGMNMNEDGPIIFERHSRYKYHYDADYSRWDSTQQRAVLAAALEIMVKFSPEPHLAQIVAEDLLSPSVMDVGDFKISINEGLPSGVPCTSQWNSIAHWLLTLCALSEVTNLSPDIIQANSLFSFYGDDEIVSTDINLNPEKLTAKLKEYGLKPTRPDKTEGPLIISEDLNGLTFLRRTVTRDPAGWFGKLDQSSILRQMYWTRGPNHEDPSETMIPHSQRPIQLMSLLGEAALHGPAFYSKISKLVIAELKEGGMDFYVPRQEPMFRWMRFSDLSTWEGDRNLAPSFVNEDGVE

As for `Cc1ccc(NC(=O)CSc2n[nH]c(-c3ccccc3O)n2)c(C)c1` [Compound 1], the “Inhibition of RdRp primed elongation activity (gel-shift)” value (“Inhibition … (gel-shift)” below) in data set [1] is “partial inhibition”.

For the compound `Cc1ccc(NC(=O)CSc2n[nH]c(-c3ccccc3O)n2)cc1` [Compound 1b], the “Inhibition … (gel-shift)” value in [1] is given as “partial inhibition”.

Turning to `Cc1ccc(NC(=O)C[S+]([O-])c2n[nH]c(-c3ccccc3O)n2)c(C)c1` (stereo not drawn) [Compound 1e], the “Inhibition of HuNoV RdRp activity at 20 μM” value (from here on “Inhibition … at 20 μM”) in data set [2] is given as “loss of inhibitory activity”.

Regarding `Cc1ccc(NC(=O)CS(=O)(=O)c2n[nH]c(-c3ccccc3O)n2)c(C)c1` [Compound 1f], the “Inhibition … (gel-shift)” value in data set [1] was “partial inhibition”. In data set [3], the “MNV CC50” value was “not associated with any cytotoxicity”.

On to `C[C@@]1(O)[C@H](O)[C@@H](CO)O[C@H]1n1ccc(N)nc1=O` [Compound 2-CMC, 2′-C-methylcytidine], for which the EC50 in [4] is 8.2 µM. Besides, the CC50 in data set [5] is > 100 µM.

With `COc1ccc(N2C(=O)c3ccc(C(=O)O)cc3C2=O)cc1NC(=O)c1ccccc1` [Compound 2], the “Inhibition … at 20 μM” value in data set [2] is given as “limited RdRp inhibition”. Further, the “Inhibition … (gel-shift)” value in data set [1] is given as “partial inhibition”.

For `O=C(Nc1cccc(N2C(=O)c3ccccc3C2=O)c1)c1ccccc1` [Compound 2e], the “Inhibition … at 20 μM” value in [2] is listed as “loss of inhibitory activity”.

As to `O=C(N/N=C/c1ccc(O)cc1O)c1ccccc1OCc1ccccc1` [Compound 3a], the “Inhibition … at 20 μM” value in data set [2] is given as “modest inhibition”. Moreover, the “Inhibition … (gel-shift)” value in data set [1] was “did not show significant inhibition”.

For the compound `O=C(N/N=C/c1ccc(OCc2ccccc2)cc1O)c1ccccc1O` [Compound 3b], the “Inhibition … at 20 μM” value in [2] was “modest inhibition”. In data set [1], the “Inhibition … (gel-shift)” value is “did not show significant inhibition”.

Regarding `Cc1cc(C(=O)O)ccc1-c1ccc(/C=C2\SC(=O)N(CC(=O)N3CCOCC3)C2=O)o1` [Compound 4], in [3], the “MNV CC50” value is on record as “did not display any cytotoxicity”. Moreover, the IC50 in data set [6] is 15 µM.

`Cc1cc(O)ccc1-c1ccc(/C=C2\SC(=O)N(CC(=O)N3CCOCC3)C2=O)o1` [Compound 4a]: the “Inhibition … at 20 μM” value in data set [2] is reported as “modest inhibition”.

Turning to `O=C(CN1C(=O)S/C(=C\c2ccc(-c3ccc(O)cc3)o2)C1=O)N1CCOCC1` [Compound 4b], the “Inhibition … (gel-shift)” value in data set [1] is on record as “significant but partial inhibition”. For the same compound, in data set [3], the “MNV CC50” value is reported as “cytotoxic effect in the micromolar range”.

Take `O=C(CN1C(=O)S/C(=C\c2ccc(-c3ccc(OP(=O)(O)O)cc3)o2)C1=O)N1CCOCC1` [Compound 4c]: in [1], the “Inhibition … (gel-shift)” value is given as “partial inhibition”.

With `O=C1NN(c2ccccc2)C(=O)/C1=C/c1ccc(-c2ccc(S(=O)(=O)Nc3ccccc3)cc2)o1` [Compound 5], in data set [1], the “Inhibition … (gel-shift)” value is recorded as “completely abolish”. In addition, in data set [7], the EC50 was > 100 µM. The IC50 in [6] was 5.6 µM.

As for `O=C1NN(c2ccc(O)cc2)C(=O)/C1=C/c1ccc(-c2ccc(S(=O)(=O)Nc3ccccc3)cc2)o1` [Compound 5a], the “Inhibition … (gel-shift)” value in data set [1] is reported as “nearly complete inhibition”. The “MNV CC50” value in data set [3] was “CC50 value in the low micromolar range”.

On to `NC(=O)c1nc(F)c[nH]c1=O` [Compound T-705, Favipiravir], for which, in data set [4], the EC50 was 21 µM. The CC50 in [5] is > 100 µM.

With `Cc1nc(-c2ccccc2)sc1C(=O)Nc1sc2c(c1C#N)CCC2` [NIC02], the IC50 in [8] is 5 µM. Further, in [9], the EC50 was 4.8 µM.

With `Cc1nc(/N=N/c2cc(S(=O)(=O)O)c3cc([N+](=O)[O-])cc(S(=O)(=O)O)c3c2)c(COP(=O)(O)O)c(C=O)c1O` [PPNDS, reference compound], the “Inhibition … (gel-shift)” value in data set [1] is recorded as “complete inhibition”. The IC50 was 1.5 ± 0.25 µM in [6] and 0.45 µM in data set [8].

As to `NC(=O)c1ncn([C@@H]2O[C@H](CO)[C@@H](O)[C@H]2O)n1` [Ribavirin], in data set [4], the EC50 was 43 µM. Also, the CC50 in data set [5] was > 100 µM.

`Cc1ccc(C(=O)Nc2ccc(S(=O)(=O)O)c3cc(S(=O)(=O)O)cc(S(=O)(=O)O)c23)cc1NC(=O)c1cccc(NC(=O)Nc2cccc(C(=O)Nc3cc(C(=O)Nc4ccc(S(=O)(=O)O)c5cc(S(=O)(=O)O)cc(S(=O)(=O)O)c45)ccc3C)c2)c1` [Suramin]: the IC50 was 0.025 µM in data set [8] and 0.07 µM in [10].
